# Source: ChEMBL document CHEMBL1201862, “PubChem BioAssay data set” (2004)
# Active and inactive are the calls of the source.
# Experiments:
# HEK293 [1] = assay: Cytotoxicity assay in HEK293 cells. [Related pubchem assays (depositor defined):AID1266, AID1269, AID1270, AID1271, AID1280, AID1281, AID1282, AID1283, AID1287, AID1289, AID1290, AID1291, AID1292, AID1293, AID1294, AID1295, AID1299, AID1302, AID1364, AID1365, AID1366, AID1367, AID1369, AID1370, AID1371, AID1372, AID1373, AID1374, AID1375, AID1384 …; type: functional, cell-based; conditions: Homo sapiens
# HEK293 [2] = assay: PMA/Ionomycin induced NF-kB luciferase assay in 293- NF-kB-Luc stable cells. [Related pubchem assays: 1299, 1270, 1295, 1375, 1287, 1281, 1293, 1291, 1289, 1280, 465, 1364, 1282, 1372, 1365, 1370, 1367, 1366, 1269, 1373, 1292, 1290, 1302, 1371, 1283, 1271, 1294, 1374, 1368, 1369 ]; type: functional, cell-based; conditions: Homo sapiens
# [3] = biological target: T1, Luciferin 4-monooxygenase (Photinus pyralis, UniProt P08659); assay: In vitro luciferase assay using purified luciferase. [Related pubchem assays: 1299, 1270, 1295, 1375, 1287, 1281, 1293, 1291, 1289, 1280, 465, 1364, 1282, 1372, 1365, 1370, 1367, 1366, 1266, 1373, 1292, 1290, 1302, 1371, 1283, 1271, 1294, 1374, 1368, 1369 ]
# HEK293 [4] = assay: PMA/Ionomycin-induced IL-8 production in HEK293- NF-kB-Luc stable cells. [Related pubchem assays: 1299, 1295, 1375, 1287, 1281, 1293, 1291, 1289, 1280, 465, 1364, 1282, 1372, 1365, 1367, 1366, 1266, 1269, 1373, 1292, 1290, 1302, 1371, 1283, 1271, 1294, 1374, 1368, 1369 ]; type: functional, cell-based; conditions: Homo sapiens
# HEK293 [5] = assay: TNF Induced NF-kB Luciferase in 293-NF-kB-Luc Stable Cells. [Related pubchem assays: 1266, 1299, 1269, 1373, 1292, 1290, 1302, 1371, 1283, 1270, 1295, 1271, 1375, 1294, 1374, 1281, 1293, 1291, 1289, 1280, 465, 1368, 1364, 1282, 1372, 1365, 1369, 1370, 1367, 1366 ]; type: functional, cell-based; conditions: Homo sapiens
# [6] = microbe, parasite or virus in culture; type: functional; conditions: Mycobacterium tuberculosis
# [7] = viability of uninfected HEp-2 cells – cell-based, HTS, cytotoxicity control for RSV inhibitor project, dose response (AID 2410); type: functional; conditions: human respiratory syncytial virus
# [8] = biological target: T2, Delta-type opioid receptor (Homo sapiens, UniProt P41143); assay: HTS Image-Based Screen for Agonists of the DOR Receptor. [Related pubchem assays (depositor defined):AID1777, AID1786, AID2133]; type: functional
# Cytochrome P450 2C9 = Cytochrome P450 2C9 (Homo sapiens, UniProt P11712)
# [9] = biological target: T3, Kappa-type opioid receptor (Homo sapiens, UniProt P41145); type: functional
# Cytochrome P450 2C19 = Cytochrome P450 2C19 (Homo sapiens, UniProt P33261); assay: Cytochrome panel assay with activity outcomes. Panel member name: p450-cyp2c19 Compounds with AC50 equal or less than 10 uM are considered active; type: functional; conditions: read-out: AC50
# [10] = biological target: T3, Kappa-type opioid receptor; type: functional; remark: listed apart in the source
# Mu-type opioid receptor = Mu-type opioid receptor (Homo sapiens, UniProt P35372); assay: HTS Image-Based Screen for Agonists of the MOR Receptor. [Related pubchem assays (depositor defined):AID1777, AID1785, AID1786, AID2133]; type: functional;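 note: imaging of beta-arrestin GFP recruitment into spots after receptor activation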
# [11] = biological target: T2, Delta-type opioid receptor; assay: HTS Image-Based Screen for Antagonists of the DOR Receptor. [Related pubchem assays (depositor defined):AID1777, AID1785, AID1786, AID2133]; type: functional
# [12] = biological target: Lysosomal acid glucosylceramidase (Homo sapiens, UniProt P04062); assay: Dose response cell-based high throughput screening assay to identify enhancers of beta-glucosidase activity. [Related pubchem assays: 784 ]; type: functional
# Procathepsin L = Procathepsin L (Homo sapiens, UniProt P07711)
# Aspartyl aminopeptidase = biological target: T4, Aspartyl aminopeptidase (Plasmodium falciparum 3D7, UniProt Q8I2J3)
# T4 sequence (Q8I2J3 whole entry): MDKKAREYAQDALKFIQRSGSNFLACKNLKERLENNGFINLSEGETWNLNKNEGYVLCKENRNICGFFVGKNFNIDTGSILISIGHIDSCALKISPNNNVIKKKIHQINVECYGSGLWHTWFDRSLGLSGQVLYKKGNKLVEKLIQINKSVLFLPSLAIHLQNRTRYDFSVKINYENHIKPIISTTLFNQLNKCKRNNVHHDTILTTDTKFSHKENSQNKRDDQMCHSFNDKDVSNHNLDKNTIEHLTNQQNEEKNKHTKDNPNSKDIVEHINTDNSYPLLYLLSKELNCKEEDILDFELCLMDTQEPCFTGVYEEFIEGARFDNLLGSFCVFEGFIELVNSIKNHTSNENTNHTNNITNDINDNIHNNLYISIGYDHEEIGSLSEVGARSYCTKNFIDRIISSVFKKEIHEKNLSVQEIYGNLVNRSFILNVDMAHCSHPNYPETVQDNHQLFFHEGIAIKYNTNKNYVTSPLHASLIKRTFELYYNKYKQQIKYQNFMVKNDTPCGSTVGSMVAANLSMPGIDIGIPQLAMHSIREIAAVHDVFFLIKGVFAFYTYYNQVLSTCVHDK
# [13] = biological target: Melanin-concentrating hormone receptor 1 (Homo sapiens, UniProt Q99705); assay: Fluorescence-based counterscreen for antagonists of the G-protein coupled receptor 7 (GPR7): cell-based high throughput dose response assay to identify antagonists of the melanin-concentrating hormone receptor 1 (MCHR1).; type: functional
# [14] = biological target: Neuropeptides B/W receptor type 1 (Homo sapiens, UniProt P48145); assay: Fluorescence-based dose response cell-based high throughput screening assay to identify antagonists of the G-protein coupled receptor 7 (GPR7). [Related pubchem assays: 1952 (Screening assay (GPR7 antagonists).), 1880 (Summary AID.)]; type: functional
# [15] = biological target: Neuropeptide Y receptor type 2 (Homo sapiens, UniProt P49146); assay: Fluorescence-based cell-based high-throughput dose response assay for agonists of NPY-Y2. [Related pubchem assays: 1703 (Screening assay (CNGC inhibitors).), 1359 (Screening assay (NPY-Y2 potentiators or agonists).), 1304 (Screening assay (NPY-Y1 potentiators or agonists).), 1710 (Screening assay (NPY-Y2 agonists).), 1791 (Summary AID.)]; type: functional
# [16] = biological target: Neuropeptide Y receptor type 1 (Homo sapiens, UniProt P25929); assay: Fluorescence-based counterscreen for agonists of NPY-Y2: cell-based high-throughput dose response assay for agonists of NPY-Y1.; type: functional
# HEK293 [17] = assay: Fluorescence-based counterscreen for potentiators or agonists of NPY-Y2: cell-based high-throughput dose response assay to identify inhibitors of cyclic nucleotide gated ion channel (CNGC) activity. In this assay, the parental HEK293 cell line transfected with a cyclic-nucleotide gated ion channel (CNGC)-based cAMP sensor is used to measure inhibition of isoproterenol-induced CNGC activity by test compound.; type: functional; conditions: Homo sapiens
# [18] = biological target: T1, Luciferin 4-monooxygenase; assay: inhibition of purified Photinus pyralis luciferase – biochemical, luminescence, dose response (AID 1891)
# [19] = biological target: Polyadenylate-binding protein 1 (Homo sapiens, UniProt P11940); assay: blockers of PABP interaction with poly(A) – biochemical, fluorescence polarization, […] (AID 2014)
# [20] = biological target: Eukaryotic translation initiation factor 4H (Homo sapiens, UniProt Q15056); assay: eIF4H binding inhibition – biochemical, uHTS, fluorescence polarization, translation initiation inhibitor project, primary screen (AID 2012)
# [21] = Luminescence Cell-Based Dose Confirmation HTS to Identify Inhibitors of Platelet Dense Granule Release. [Related pubchem assays: 1663 (Primary HTS), 1678 (Summary of Project)]; type: functional
# [22] = biological target: Metabotropic glutamate receptor 4 (Rattus norvegicus, UniProt P31423); assay: Modulation of the Metabotropic Glutamate Receptor mGluR4: Rat PAM Potency. [Related pubchem assays (depositor defined):AID2437, AID2807]; type: functional
# [23] = biological target: T5, Scavenger receptor class B member 1 (Mus musculus, UniProt Q61009); assay: mouse SR-BI DiI-HDL uptake blockers – ldlA[mSR-BI] cells, fluorescence, cherry pick, dose response (AID 493194); type: functional, cell-based;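 note: cellular uptake of fluorescent DiI-labeled HDL measured as cell fluorescence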
# T5 sequence (Q61009 whole entry): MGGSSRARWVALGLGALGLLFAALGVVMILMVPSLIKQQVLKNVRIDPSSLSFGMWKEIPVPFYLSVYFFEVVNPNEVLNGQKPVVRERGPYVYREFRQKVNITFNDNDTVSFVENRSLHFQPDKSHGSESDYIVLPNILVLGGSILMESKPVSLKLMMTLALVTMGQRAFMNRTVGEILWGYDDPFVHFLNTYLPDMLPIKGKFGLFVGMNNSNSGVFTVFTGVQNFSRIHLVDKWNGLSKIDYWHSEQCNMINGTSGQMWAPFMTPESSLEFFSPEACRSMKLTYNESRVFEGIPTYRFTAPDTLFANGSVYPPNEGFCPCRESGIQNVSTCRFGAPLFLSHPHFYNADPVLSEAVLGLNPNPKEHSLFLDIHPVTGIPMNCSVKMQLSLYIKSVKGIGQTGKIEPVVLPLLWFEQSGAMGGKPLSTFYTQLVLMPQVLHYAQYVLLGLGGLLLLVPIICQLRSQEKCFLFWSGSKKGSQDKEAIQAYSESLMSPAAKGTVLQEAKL
# [24] = biological target: T6, Voltage-gated N-type calcium channel alpha-1B subunit/Amyloid beta A4 precursor protein-binding family A member 1 (Homo sapiens, UniProt Q00975+Q02410); assay: disruptors of Mint-PDZ/N-type channel peptide interaction – biochemical, HTRF, set 2, SAR follow-up (AID 434980); type: functional
# [25] = biological target: T6, Voltage-gated N-type calcium channel alpha-1B subunit/Amyloid beta A4 precursor protein-binding family A member 1; assay: disruptors of Mint-PDZ/N-type channel peptide interaction – biochemical, HTRF, SAR follow-up (AID 2489); type: functional
# [26] = antiviral protection against BTV-induced cell death – arbovirus, BSR cells, confirmation (AID 1250); type: functional;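 note: protection from viral cytopathic effect measured as cell viability by ATP luminescence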
# [27] = biological target: T7, Heat shock factor protein 1 (Mus musculus, UniProt P38532); assay: decrease of HSF1-responsive luciferase luminescence – cell-based, NIH3T3, dose retest, confirmation (AID 2382); type: functional;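 note: NIH3T3 fibroblasts with HSF1-driven luciferase reporter stressed by proteasome inhibitor MG132; luminescence from HSF1-driven luciferase expression after 8 hours of MG132 stress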
# T7 sequence (P38532 whole entry): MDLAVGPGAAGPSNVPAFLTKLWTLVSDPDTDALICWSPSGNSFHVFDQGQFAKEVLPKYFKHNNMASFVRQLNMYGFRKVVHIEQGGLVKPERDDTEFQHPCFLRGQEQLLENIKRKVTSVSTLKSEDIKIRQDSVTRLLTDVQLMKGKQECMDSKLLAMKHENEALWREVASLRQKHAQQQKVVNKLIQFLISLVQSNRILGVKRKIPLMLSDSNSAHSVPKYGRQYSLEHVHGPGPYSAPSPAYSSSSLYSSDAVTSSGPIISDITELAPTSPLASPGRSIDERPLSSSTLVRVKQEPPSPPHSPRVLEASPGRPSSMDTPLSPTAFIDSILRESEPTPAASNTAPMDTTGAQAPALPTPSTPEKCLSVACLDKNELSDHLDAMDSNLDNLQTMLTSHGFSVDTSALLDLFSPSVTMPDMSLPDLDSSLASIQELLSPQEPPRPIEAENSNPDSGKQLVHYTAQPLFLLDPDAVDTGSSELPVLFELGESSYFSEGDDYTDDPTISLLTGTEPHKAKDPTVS
# T3 sequence (P41145 whole entry): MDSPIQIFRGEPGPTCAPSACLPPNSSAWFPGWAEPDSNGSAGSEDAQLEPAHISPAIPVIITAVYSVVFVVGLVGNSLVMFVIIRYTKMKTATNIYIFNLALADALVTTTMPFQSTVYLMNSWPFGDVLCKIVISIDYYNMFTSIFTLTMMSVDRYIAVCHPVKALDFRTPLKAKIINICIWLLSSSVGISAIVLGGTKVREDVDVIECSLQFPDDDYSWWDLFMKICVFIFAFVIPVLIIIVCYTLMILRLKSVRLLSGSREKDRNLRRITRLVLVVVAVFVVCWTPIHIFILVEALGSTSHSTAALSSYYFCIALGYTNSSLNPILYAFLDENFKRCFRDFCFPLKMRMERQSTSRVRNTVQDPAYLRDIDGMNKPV
# T6 sequence (Q00975 whole entry): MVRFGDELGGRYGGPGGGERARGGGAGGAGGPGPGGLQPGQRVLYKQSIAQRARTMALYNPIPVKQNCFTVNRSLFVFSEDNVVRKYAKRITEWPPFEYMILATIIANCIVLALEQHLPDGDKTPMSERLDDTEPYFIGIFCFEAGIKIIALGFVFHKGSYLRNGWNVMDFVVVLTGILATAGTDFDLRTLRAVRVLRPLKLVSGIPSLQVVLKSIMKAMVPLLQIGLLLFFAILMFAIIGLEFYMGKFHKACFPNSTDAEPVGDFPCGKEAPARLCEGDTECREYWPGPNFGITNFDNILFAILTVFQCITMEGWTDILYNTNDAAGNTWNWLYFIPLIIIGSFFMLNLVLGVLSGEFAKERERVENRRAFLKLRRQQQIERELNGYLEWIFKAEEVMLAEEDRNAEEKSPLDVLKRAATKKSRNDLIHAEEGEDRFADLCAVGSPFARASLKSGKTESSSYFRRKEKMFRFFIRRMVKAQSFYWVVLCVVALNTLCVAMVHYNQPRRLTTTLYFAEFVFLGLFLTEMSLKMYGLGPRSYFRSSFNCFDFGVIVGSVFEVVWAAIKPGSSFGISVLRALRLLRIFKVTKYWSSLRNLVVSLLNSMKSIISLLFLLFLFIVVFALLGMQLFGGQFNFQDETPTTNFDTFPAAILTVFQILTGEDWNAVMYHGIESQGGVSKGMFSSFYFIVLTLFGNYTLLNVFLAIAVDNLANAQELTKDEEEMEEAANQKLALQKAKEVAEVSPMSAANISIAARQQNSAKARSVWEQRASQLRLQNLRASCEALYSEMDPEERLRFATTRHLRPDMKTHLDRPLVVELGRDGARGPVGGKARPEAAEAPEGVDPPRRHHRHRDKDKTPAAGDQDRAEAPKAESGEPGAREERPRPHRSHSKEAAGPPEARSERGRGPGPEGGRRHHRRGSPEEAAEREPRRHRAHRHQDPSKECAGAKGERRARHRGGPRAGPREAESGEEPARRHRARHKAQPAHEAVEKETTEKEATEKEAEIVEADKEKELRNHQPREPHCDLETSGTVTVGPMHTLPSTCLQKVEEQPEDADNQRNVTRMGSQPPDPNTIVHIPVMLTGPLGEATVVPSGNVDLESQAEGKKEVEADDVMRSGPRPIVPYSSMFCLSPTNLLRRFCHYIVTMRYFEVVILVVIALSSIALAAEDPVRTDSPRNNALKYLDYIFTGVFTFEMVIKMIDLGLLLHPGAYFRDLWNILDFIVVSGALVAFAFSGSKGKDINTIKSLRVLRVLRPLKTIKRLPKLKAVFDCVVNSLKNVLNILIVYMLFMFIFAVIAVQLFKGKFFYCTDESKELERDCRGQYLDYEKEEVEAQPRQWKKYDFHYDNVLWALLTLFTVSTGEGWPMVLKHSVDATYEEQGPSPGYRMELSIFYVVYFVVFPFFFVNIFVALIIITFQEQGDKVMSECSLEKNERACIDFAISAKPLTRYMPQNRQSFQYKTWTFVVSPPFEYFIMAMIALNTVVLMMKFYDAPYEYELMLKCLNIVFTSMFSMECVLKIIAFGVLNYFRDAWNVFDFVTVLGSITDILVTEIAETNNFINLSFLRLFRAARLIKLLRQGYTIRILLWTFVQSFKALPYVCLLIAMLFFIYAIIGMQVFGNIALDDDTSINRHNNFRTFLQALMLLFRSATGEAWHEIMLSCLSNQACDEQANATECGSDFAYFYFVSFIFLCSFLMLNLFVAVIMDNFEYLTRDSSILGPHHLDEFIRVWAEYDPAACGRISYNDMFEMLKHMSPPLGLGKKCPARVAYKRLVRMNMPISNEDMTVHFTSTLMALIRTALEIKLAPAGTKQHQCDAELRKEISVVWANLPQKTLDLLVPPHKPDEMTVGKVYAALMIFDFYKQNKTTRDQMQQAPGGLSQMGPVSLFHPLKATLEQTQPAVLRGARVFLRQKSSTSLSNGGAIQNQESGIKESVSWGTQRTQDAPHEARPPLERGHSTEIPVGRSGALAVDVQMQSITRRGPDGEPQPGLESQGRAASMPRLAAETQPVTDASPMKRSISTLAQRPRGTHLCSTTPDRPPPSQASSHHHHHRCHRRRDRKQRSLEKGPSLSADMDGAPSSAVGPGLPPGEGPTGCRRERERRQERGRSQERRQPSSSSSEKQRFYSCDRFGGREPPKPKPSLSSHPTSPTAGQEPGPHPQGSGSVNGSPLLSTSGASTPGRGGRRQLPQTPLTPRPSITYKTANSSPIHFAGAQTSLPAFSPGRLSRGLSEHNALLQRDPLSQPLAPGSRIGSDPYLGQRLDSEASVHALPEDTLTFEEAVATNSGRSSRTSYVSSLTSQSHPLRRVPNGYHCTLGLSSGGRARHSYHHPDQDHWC
# T6 sequence (Q02410 whole entry): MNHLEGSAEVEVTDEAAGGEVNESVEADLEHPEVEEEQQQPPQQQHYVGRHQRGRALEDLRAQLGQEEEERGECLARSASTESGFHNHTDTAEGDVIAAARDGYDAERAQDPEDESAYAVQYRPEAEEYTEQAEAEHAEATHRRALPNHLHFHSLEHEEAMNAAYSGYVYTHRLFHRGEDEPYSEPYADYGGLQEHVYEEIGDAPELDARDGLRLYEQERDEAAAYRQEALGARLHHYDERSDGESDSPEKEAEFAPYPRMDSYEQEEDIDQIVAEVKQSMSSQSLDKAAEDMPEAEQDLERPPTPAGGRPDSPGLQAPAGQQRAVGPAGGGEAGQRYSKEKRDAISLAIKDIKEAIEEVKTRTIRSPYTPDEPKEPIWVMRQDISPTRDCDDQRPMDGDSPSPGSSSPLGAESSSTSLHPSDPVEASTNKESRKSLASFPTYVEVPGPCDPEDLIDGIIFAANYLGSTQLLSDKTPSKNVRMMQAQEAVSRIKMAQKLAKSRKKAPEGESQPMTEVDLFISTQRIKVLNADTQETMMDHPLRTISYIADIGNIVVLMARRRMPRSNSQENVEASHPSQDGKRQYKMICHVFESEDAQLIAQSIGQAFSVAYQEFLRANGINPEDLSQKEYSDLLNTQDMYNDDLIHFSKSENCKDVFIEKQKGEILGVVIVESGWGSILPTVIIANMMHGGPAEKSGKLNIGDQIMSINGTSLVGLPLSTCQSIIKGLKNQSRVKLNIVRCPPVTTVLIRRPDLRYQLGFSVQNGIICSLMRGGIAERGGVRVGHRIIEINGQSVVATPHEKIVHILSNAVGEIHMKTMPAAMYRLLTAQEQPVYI
# T2 sequence (P41143 whole entry): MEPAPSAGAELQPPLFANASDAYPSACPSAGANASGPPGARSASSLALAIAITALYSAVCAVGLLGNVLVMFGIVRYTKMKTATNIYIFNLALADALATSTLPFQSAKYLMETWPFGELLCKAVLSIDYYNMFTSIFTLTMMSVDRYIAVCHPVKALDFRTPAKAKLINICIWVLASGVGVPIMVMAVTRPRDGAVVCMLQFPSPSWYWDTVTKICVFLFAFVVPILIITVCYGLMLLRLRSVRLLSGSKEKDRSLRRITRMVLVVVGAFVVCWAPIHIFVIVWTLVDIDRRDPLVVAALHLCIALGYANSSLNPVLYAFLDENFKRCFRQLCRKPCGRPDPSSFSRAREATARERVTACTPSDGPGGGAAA
# T1 sequence (P08659 whole entry): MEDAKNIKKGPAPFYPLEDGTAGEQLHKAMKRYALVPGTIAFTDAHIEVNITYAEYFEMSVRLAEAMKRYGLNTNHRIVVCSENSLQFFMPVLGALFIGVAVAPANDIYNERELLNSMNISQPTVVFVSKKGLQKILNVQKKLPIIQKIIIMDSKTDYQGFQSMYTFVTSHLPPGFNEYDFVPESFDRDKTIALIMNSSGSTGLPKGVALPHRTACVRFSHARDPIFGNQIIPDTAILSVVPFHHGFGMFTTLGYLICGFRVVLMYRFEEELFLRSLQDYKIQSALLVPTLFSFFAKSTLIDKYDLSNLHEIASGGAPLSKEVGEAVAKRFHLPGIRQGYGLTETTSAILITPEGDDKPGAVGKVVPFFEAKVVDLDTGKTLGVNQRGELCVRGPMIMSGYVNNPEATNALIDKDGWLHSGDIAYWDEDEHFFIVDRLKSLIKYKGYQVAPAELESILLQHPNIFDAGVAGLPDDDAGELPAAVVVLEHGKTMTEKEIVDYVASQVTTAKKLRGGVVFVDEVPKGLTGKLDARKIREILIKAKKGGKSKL
# Neuropeptide Y receptor type 1, sequence (P25929 whole entry): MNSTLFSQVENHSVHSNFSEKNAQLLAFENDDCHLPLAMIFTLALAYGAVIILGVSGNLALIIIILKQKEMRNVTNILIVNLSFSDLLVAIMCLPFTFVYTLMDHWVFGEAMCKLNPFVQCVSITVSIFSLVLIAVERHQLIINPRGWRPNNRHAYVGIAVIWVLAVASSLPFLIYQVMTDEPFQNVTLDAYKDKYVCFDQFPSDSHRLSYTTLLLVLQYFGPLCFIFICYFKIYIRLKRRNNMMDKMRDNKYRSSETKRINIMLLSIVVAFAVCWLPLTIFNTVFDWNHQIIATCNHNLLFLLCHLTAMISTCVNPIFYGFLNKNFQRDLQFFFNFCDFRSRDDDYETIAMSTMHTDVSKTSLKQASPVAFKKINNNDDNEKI
compound,measurement,setting,value
CCOc1ccc(N(CC(=O)Nc2ccccc2Br)S(C)(=O)=O)cc1,EC50,HEK293 [1],15.5 µM (inactive)
same,EC50,HEK293 [2],2.78 µM (active)
same,EC50,[3],> 8 µM (not active)
same,EC50,HEK293 [4],8.11 µM (not active)
same,EC50,HEK293 [5],> 8 µM (not active)
COc1ccc(C(C[N+](=O)[O-])c2c(-c3ccccc3)cc3ccccn23)c(OC)c1 (stereo not drawn),IC50,cells,36.3 µM (active)
same,CC50,[6],20.3 µM (active)
same,CC50,[7],> 50 µM (active)
CCC(C)(C(=O)NC1CCCC1)N(Cc1ccco1)C(=O)c1ccccn1 (stereo not drawn),EC50,[8],> 32 µM (inactive)
same,AC50,Cytochrome P450 2C9,12.6 µM (inconclusive)
same,EC50,[9],9.05 µM
same,AC50,Cytochrome P450 2C19,7.94 µM (inconclusive)
same,EC50,[10],11.4 µM
same,EC50,Mu-type opioid receptor,> 32 µM (inactive)
same,IC50,[11],> 32 µM (inactive)
COC(=O)c1cn(-c2ccccc2)nc1-c1cccnc1,EC50,[12],> 50 µM (not active)
Cc1cccc(N=C(S)Nn2cnnc2)c1C,IC50,Procathepsin L,> 59.6 µM (not active)
same,IC50,Aspartyl aminopeptidase,1.9 µM (active)
CCOC(=O)c1c[nH]nc1N=C(S)Nc1ccc(OC)cc1,IC50,[13],> 14.6 µM (not active)
same,IC50,[14],> 43.8 µM (not active)
COc1ccc(COC(=O)c2ccc3c(=O)n4c(nc3c2)CCC4)cc1F,EC50,[15],> 35.4 µM (not active)
same,EC50,[16],> 35.4 µM (not active)
same,EC50,HEK293 [17],> 35.4 µM (not active)
CC(=O)c1cccc(NC(=O)CCc2nnc3ccc(NCc4ccco4)nn23)c1,EC50,[18],> 112 µM (not active)
same,IC50,[19],77 µM (active)
same,IC50,[20],12 µM (active)
same,EC50,[21],> 112 µM (not active)
COc1cc(NC(=O)c2ccccn2)ccc1NC(=O)c1ccccc1Cl,EC50,[22],0.11 µM (active)
CCOc1ccc(CCNC(=O)C2CC(=O)N(c3ccccc3OCC)C2)cc1OCC (stereo not drawn),AC50,[23],17.3 µM (active)
CCCOc1ccc(N2C(=O)C3C(C2=O)C2(C)C=CC3(C)O2)cc1 (stereo not drawn),IC50,[24],> 56.8 µM (inactive)
same,IC50,[25],9.66 µM (active)
COc1ccc2ccccc2c1/C=N/N1C(=O)CSC1=S,IC50,[26],21.1 µM (active)
same,EC50,[27],> 195 µM (not active)
